Results taken from US20230227838A1, “ENHANCED CELL SURVIVAL AGAINST BIOTIC AND ABIOTIC STRESSES THROUGH SALICYLICK ACID-INDUCED NPR1 CONDENSATES” (priority 2020, published 2023).
Residue numbers refer to the chain shown, from its start.

B1: sim3: SUMOylation-deficient mutant of NPR1 (protein)
chain: MDTTIDGFADSYEISSTSFVATDNTDSSIVYLAAEQVLTGPDVSALQLLSNSFESVFDSPDDFYSDAKLVLSDGREVSFHRCVLSARSSFFKSALAAAKKEKDSNNTAAVKLELKEIAKDYEVGFDSVVTVLAYVYSSRVRPPPKGVSECADENCCHVACRPAVDFMLEVLYLAFIFKIPELITLYQRHLLDVVDKVVIEDTLVILKLANICGKACMKLLDRCKEIIVKSNVDMVSLEKSLPEELVKEIIDRRKELGLEVPKVKKHVSNVHKALDSDDIELVKLLLKEDHTNLDDACALHFAVAYCNVKTATDLLKLDLADVNHRNPRGYTVLHVAAMRKEPQLAASALEKGASASEATLEGRTALMIAKQATMAVECNNIPEQCKHSLKGRLCVEILEQEDKREQIPRDVPPSFAVAADELKMTLLDLENRVALAQRLFPTEAQAAMEIAEMKGTCEFIVTSLEPDRLTGTKRTSPGVKIAPFRILEEHQSRLKALSKTVELGKRFFPRCSAVLDQIMNCEDLTQLACGEDDTAEKRLQKKQRYMEIQETLKKAFSEDNLELGNSSLTDSTSSTSKSTGGKRSNRKLSHRRR
modifications: left off: small tags and cut ends
notes: SUMOylation-deficient mutant of NPR1
B2: S55/59D: phosphomimic mutant of NPR1 at S55/59 (protein)
chain: B1 chain with S55D, S59D, A345I, A346L, A348L
modifications: left off: small tags and cut ends

Test system: CUL3
Test: Co-IP of Myc-CUL3 with HA-fused NPR1 or variants
Assay type: binding, Arabidopsis thaliana
Settings: for CUL3 pull-down signal in co-IP: 1 mM SA for 5 hr
Procedure: Plant transformation: For plant transformations, the Agrobacterium tumefaciens strain GV3101 was transformed with plant binary vectors carrying the indicated transgenes. For stable expression in Arabidopsis, a floral dipping method was used. For transient expression in N benthamiana, the Agrobacterium carrying the indicated construct was cultured overnight at 28° C. in Luria-Bertani (LB) broth medium supplemented with appropriate antibiotics: spectinomycin (100 μg/ml), kanamycin (50 μg/ml), gentamycin (50 μg/ml), and rifampicin (25 μg/ml). The obtained culture was re-inoculated at 1:10 into fresh growth media with antibiotics and grown for another 4 hr. Cells were then spun down at 1,600 g for 10 min, and inoculum was prepared by resuspending cells to OD600 nm=1 in double distilled water (DDW) containing 200 μM acetosyringone (Sigma). Unless otherwise stated, for co-IP, co-localization, and BiFC assays in N. benthamiana, the proteins were co-expressed at 1:1 mixture of the relevant Agrobacteria inoculums. In all BiFC assays, the pair of YN/YC fusions was co-expressed together with free mCherry to mark the cytoplasm and nucleus, mCherry-NLS to mark the nucleus only, or mCherry-fused test proteins for co-localization analysis. The inoculum was pressure infiltrated into N. benthamiana leaves at the abaxial side using 1 ml syringe without the needle. Due to low overall levels of NPR1-GFP in transgenic plants, a transient expression assay in Arabidopsis seedlings was used to monitor NPR1-GFP subcellular localization after SA treatment (FIG. 2B). To limit the imaging time in this transient assay (2 hours), a higher baseline SA concentration had to be used. Seeds of WT (Col-0) Arabidopsis were germinated on solid half-strength Murashige and Skoog (1/2 MS) medium and grown for 4 days. Agrobacterium carrying the indicated constructs was grown overnight in LB medium supplemented with appropriate antibiotics. The obtained culture was re-inoculated at 1:10 into virulence induction medium [50.78 mM MES, 0.5% Glucose, 1.734 mM NaH2PO4, 5% of 20X-AB mix (373.9 mM NH4C1, 24.34 mM MgSO4, 40.23 mM KCl, 1.36 mM CaCl2 and 0.18 mM FeSO4·7H2O), 200 μM acetosyringone] supplemented with 25 μg/ml rifampicin and grown for another 24 hr at 28° C. to OD600=0.8 (inoculum). Seedlings were vacuum-infiltrated with the inoculum, and at 48 hpi (hours post inoculation), treatments were performed by submerging the transformed seedlings in water or SA solution at indicated concentrations for 2 hr. Entire cotyledons were sampled for microscopy.
Protein analysis and IP. Recombinant protein analysis was performed using transient expression in N. benthamiana, or stable over-expression in transgenic Arabidopsis, or expression in E. coli. Total protein extraction from plants was performed by homogenizing leaf tissue in the plant extraction buffer [50 mM Tris-HCl (pH 7.5), 150 mM NaCl, 5 mM EDTA, 0.2% Triton X-100, 0.2% Nonidet P-40] supplemented with 1 mM PMSF, 100 μM MG132, and EDTA-free protease inhibitor cocktail (Roche). For ubiquitinated protein analysis in plants, 100 μM of DUB (deubiquitinase) inhibitor (LifeSensors) and 10 mM NEM were added. Next, the lysates were cleared by centrifugation at 14,000 rpm for 15 min followed by filtering through a 0.2 μm filter. […] Pull-downs or IP experiments were done on total protein extracts by incubating protein samples in the lysis buffer overnight with indicated affinity tag or antibody conjugated to agarose or magnetic beads: GFP-trap agarose beads (Chromotek) for GFP fusions; RFP-trap agarose beads (Chromotek) for mCherry fusions; anti-HA magnetic beads (ThermoFisher) for HA tag fusions; anti-DYKDDDDK coupled magnetic agarose (ThermoFisher) for FLAG tag fusions; and glutathione magnetic agarose (ThermoFisher) for GST fusions. Unless otherwise indicated, after pull-down/IP, beads were washed 3 times and proteins were eluted by boiling in the 2×SDS sample buffer. […]

Molecule	CUL3 pull-down signal in co-IP	NPR1-CUL3 and sim3-CUL3 interaction under dose response to SA (0-1 mM SA, 5 hr)
NPR1: wild-type Arabidopsis thaliana NPR1 protein, positive regulator of systemic acquired resistance	weak pull-down signal of CUL3	–
O=C(O)c1ccccc1O [SA, salicylic acid]	–	increase in the interaction
B1	significantly stronger CUL3 pull-down signals	–
B2	very little signal	–
